According to ChEMBL document CHEMBL1201862, “PubChem BioAssay data set” (2004):
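Step 1: Grow cells in 96-well plates. Step 2: Expose to compound for 48 hours at 5 concentrations. Step 3: Interpolate endpoints linearly; if unreached, use highest concentration. Here, GI50 denotes the concentration required for 50% inhibition of growth.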 Calls of active or inactive are those of the source. Cut-off read from the data, not from the text of the source: active = GI50 up to about 1.1 µM and inactive = higher.

Tests used:
Test in all cases: NCI tumour cell line growth inhibition, 48 h
SK-MEL-28 = system: SK-MEL-28
HOP-92 = system: HOP-92
SN12C = system: SN12C
SF-268 = system: SF-268
K562 = system: K562
Hs-578T = system: Hs-578T
A498 = system: A498
SF-295 = system: SF-295
CCRF-CEM = system: CCRF-CEM
MCF7 = system: MCF7
SK-MEL-2 = system: SK-MEL-2
TK-10 = system: TK-10
SNB-75 = system: SNB-75
OVCAR-3 = system: OVCAR-3
SF-539 = system: SF-539
HT-29 = system: HT-29
NCI-H23 = system: NCI-H23
RXF 393 = system: RXF 393
NCI-H460 = system: NCI-H460
HCT-15 = system: HCT-15

| SMILES | GI50 (SK-MEL-28) | GI50 (HOP-92) | GI50 (SN12C) | GI50 (SF-268) | GI50 (K562) | GI50 (Hs-578T) | GI50 (A498) | GI50 (SF-295) | GI50 (CCRF-CEM) | GI50 (MCF7) | GI50 (SK-MEL-2) | GI50 (TK-10) | GI50 (SNB-75) | GI50 (OVCAR-3) | GI50 (SF-539) | GI50 (HT-29) | GI50 (NCI-H23) | GI50 (RXF 393) | GI50 (NCI-H460) | GI50 (HCT-15) |
| --- | --- | --- | --- | --- | --- | --- | --- | --- | --- | --- | --- | --- | --- | --- | --- | --- | --- | --- | --- | --- |
| CCOC(=O)OC1(c2ccccc2)CCN(C)CC1 | > 100 µM (inactive) | > 100 µM (inactive) | > 100 µM (inactive) | > 100 µM (inactive) | > 100 µM (inactive) | > 100 µM (inactive) | > 100 µM (inactive) | > 100 µM (inactive) | > 100 µM (inactive) | > 100 µM (inactive) | > 100 µM (inactive) | > 100 µM (inactive) | > 100 µM (inactive) | > 100 µM (inactive) | > 100 µM (inactive) | > 100 µM (inactive) | > 100 µM (inactive) | > 100 µM (inactive) | > 100 µM (inactive) | > 100 µM |
| CCCn1c2c(c3ccccc3c1=O)C(=O)c1ccccc1-2 | > 68.9 µM (inactive) | > 57.4 µM (inactive) | > 62.4 µM (inactive) | > 73.1 µM (inactive) | > 100 µM (inactive) | 44.5 µM (inactive) | > 48.4 µM (inactive) | > 80.5 µM (inactive) | > 56.2 µM (inactive) | > 42.4 µM (inactive) | > 100 µM (inactive) | 61.8 µM (inactive) | > 48.8 µM (inactive) | > 100 µM (inactive) | > 55.2 µM (inactive) | > 29.8 µM (inactive) | > 68.9 µM (inactive) | 82.4 µM (inactive) | 7.23 µM (inactive) |  |
| O=[N+]([O-])c1ccc(Cl)cc1/C=N/C12CC3CC(CC(C3)C1)C2 | 76.9 µM (inactive) | 79.1 µM (inactive) | 51.6 µM (inactive) | 50.2 µM (inactive) | 4.98 µM (inactive) | 51.8 µM (inactive) | > 100 µM (inactive) | 57.3 µM (inactive) | 5.64 µM (inactive) | 31.3 µM (inactive) | > 66.8 µM (inactive) | > 100 µM (inactive) | > 68.1 µM (inactive) | 46.9 µM (inactive) | 31.7 µM (inactive) | 30.6 µM (inactive) | 50.9 µM (inactive) | 53.1 µM (inactive) | > 74 µM (inactive) | 25.6 µM |
| O=C1/C(=C/c2ccncc2)C(n2cccc2)c2c(Br)sc(Br)c21 (configuration not stated) | 2.65 µM (inactive) | 2.86 µM (inactive) | 4.39 µM (inactive) | 2.99 µM (inactive) | 1.82 µM (inactive) | 2.77 µM (inactive) | 22.7 µM (inactive) | 13.3 µM (inactive) | 0.671 µM (active) | 3.85 µM (inactive) | 2.46 µM (inactive) | 4.2 µM (inactive) | 3.53 µM (inactive) | 1.87 µM (inactive) | 3.87 µM (inactive) | 4.82 µM (inactive) | 2.56 µM (inactive) | 1.88 µM (inactive) | 4.39 µM (inactive) | 2.85 µM |
| CO/C(N)=C(C#N)/N=C/c1cccs1 | 45.4 µM (inactive) | > 100 µM (inactive) | > 100 µM (inactive) | > 100 µM (inactive) | 42.2 µM (inactive) | 66.2 µM (inactive) | 33.2 µM (inactive) | > 100 µM (inactive) | 66.4 µM (inactive) | 24.4 µM (inactive) | > 100 µM (inactive) | > 100 µM (inactive) | 73.5 µM (inactive) | 49.8 µM (inactive) | 92.7 µM (inactive) | 25.9 µM (inactive) | > 100 µM (inactive) | > 100 µM (inactive) | > 100 µM (inactive) | 45.7 µM |
| O=C(O)c1nn(-c2ccccc2-c2nnc(O)nc2O)c(=O)[nH]c1=O | > 100 µM (inactive) | > 100 µM (inactive) | > 100 µM (inactive) | > 100 µM (inactive) | 2.47 µM (inactive) | > 100 µM (inactive) | > 100 µM (inactive) | > 100 µM (inactive) | 51.8 µM (inactive) | > 100 µM (inactive) | > 100 µM (inactive) | > 100 µM (inactive) | > 100 µM (inactive) | > 100 µM (inactive) | > 100 µM (inactive) | > 100 µM (inactive) | > 100 µM (inactive) | > 100 µM (inactive) | > 100 µM (inactive) | > 100 µM |
| CC1(C)NC2C(=O)c3c([nH]c4ccccc34)[C@]3(C)CCC1CC23 (some centres not stated) | > 100 µM (inactive) | 61.7 µM (inactive) | > 100 µM (inactive) | > 100 µM (inactive) | 96.8 µM (inactive) | > 100 µM (inactive) | > 100 µM (inactive) | > 100 µM (inactive) | > 100 µM (inactive) | > 100 µM (inactive) | > 100 µM (inactive) | > 100 µM (inactive) | > 100 µM (inactive) | > 100 µM (inactive) | > 100 µM (inactive) | 94.8 µM (inactive) | > 100 µM (inactive) | > 100 µM (inactive) | > 100 µM (inactive) | 83 µM |
| CC1C(c2ccccc2O)c2cc3c(cc2OC1N1CCCC1)OCO3 (configuration not stated) | 20.4 µM (inactive) | 19.8 µM (inactive) | 19.4 µM (inactive) | 33.3 µM (inactive) | 20 µM (inactive) | 18.2 µM (inactive) | 23.2 µM (inactive) | 27.2 µM (inactive) | 23.8 µM (inactive) | 26.5 µM (inactive) | 23.4 µM (inactive) | 39.2 µM (inactive) | 22.2 µM (inactive) | 20.9 µM (inactive) | 24.9 µM (inactive) | 17.1 µM (inactive) | 39 µM (inactive) | 13.7 µM (inactive) | 16.1 µM (inactive) | 19.8 µM |
| Cc1ccc(S(=O)(=O)n2c3c(c4ccccc42)CCN2CCC(Br)C[C@@H]32)cc1 (some centres not stated) | 11.9 µM (inactive) | 18.1 µM (inactive) |  | 16.1 µM (inactive) | 5.11 µM (inactive) | 13.7 µM (inactive) | 22.6 µM (inactive) | 11 µM (inactive) | 12.2 µM (inactive) | 9.42 µM (inactive) | 16.3 µM (inactive) | 15.6 µM (inactive) | 12.2 µM (inactive) | 11.1 µM (inactive) | 16.7 µM (inactive) | 13.3 µM (inactive) | 11.7 µM (inactive) | 12.9 µM (inactive) | 14.9 µM (inactive) | 12.1 µM |
| CN1CCN(CCCBr)CC1 | > 100 µM (inactive) | > 100 µM (inactive) | > 100 µM (inactive) | > 100 µM (inactive) | > 100 µM (inactive) | > 100 µM (inactive) | > 100 µM (inactive) | > 100 µM (inactive) | > 100 µM (inactive) | > 100 µM (inactive) | > 100 µM (inactive) | > 100 µM (inactive) | > 100 µM (inactive) | > 100 µM (inactive) | > 100 µM (inactive) | > 100 µM (inactive) | > 100 µM (inactive) | > 100 µM (inactive) | > 100 µM (inactive) | > 100 µM |
| COc1ccccc1/C=C/C1=NN(c2cccc(S(=O)(=O)O)c2)C2(C1)SCC(=O)N2c1nc2ccccc2s1 (configuration not stated) | > 100 µM (inactive) | 23.3 µM (inactive) | > 100 µM (inactive) | > 100 µM (inactive) | 36.2 µM (inactive) | > 100 µM (inactive) | 83.4 µM (inactive) |  | 23 µM (inactive) | 44.6 µM (inactive) | > 100 µM (inactive) | 84.3 µM (inactive) | > 100 µM (inactive) |  | > 100 µM (inactive) | 97.9 µM (inactive) | 30.3 µM (inactive) | > 100 µM (inactive) | 61.9 µM (inactive) | 67.9 µM |
| CCSc1cc(=O)n(C)c(=O)n1C | > 100 µM (inactive) | > 100 µM (inactive) | > 100 µM (inactive) | > 100 µM (inactive) |  | > 100 µM (inactive) | > 100 µM (inactive) | > 100 µM (inactive) | > 100 µM (inactive) | > 100 µM (inactive) | > 100 µM (inactive) | > 100 µM (inactive) | 42.7 µM (inactive) | > 100 µM (inactive) | > 100 µM (inactive) | > 100 µM (inactive) | > 100 µM (inactive) | > 100 µM (inactive) | > 100 µM (inactive) | > 100 µM |
| CN1CCCN(C)C1c1cc([N+](=O)[O-])ccc1O | 27.9 µM (inactive) | 20.2 µM (inactive) | 31.6 µM (inactive) | 34.2 µM (inactive) | 39 µM (inactive) | 26.1 µM (inactive) | > 100 µM (inactive) | 37.3 µM (inactive) | 22 µM (inactive) | 19.8 µM (inactive) | 31 µM (inactive) | 56.1 µM (inactive) | 31.1 µM (inactive) | 41.8 µM (inactive) | 25.2 µM (inactive) | 33.8 µM (inactive) | 89.1 µM (inactive) | 41.4 µM (inactive) | 30.1 µM (inactive) | 43.6 µM |
| OC(c1cc(-c2ccccc2)nc2c1ccc1ccccc12)C1CCCCN1 (configuration not stated) | 1.81 µM (inactive) | 1.62 µM (inactive) | 1.62 µM (inactive) | 1.43 µM (inactive) | 2.54 µM (inactive) | 1.51 µM (inactive) | 1.92 µM (inactive) | 1.97 µM (inactive) | 0.0473 µM (active) | 1.87 µM (inactive) | 1.79 µM (inactive) | 1.75 µM (inactive) | 1.98 µM (inactive) | 1.84 µM (inactive) | 1.92 µM (inactive) | 1.68 µM (inactive) | 1.95 µM (inactive) | 1.81 µM (inactive) | 1.79 µM (inactive) | 2.12 µM |
| CCOC(=O)c1cccn1S(=O)(=O)c1cc(Cl)ccc1NC(=O)CC | > 100 µM (inactive) | > 100 µM (inactive) | > 100 µM (inactive) |  | 51.8 µM (inactive) | 28.9 µM (inactive) | > 100 µM (inactive) | 35.2 µM (inactive) | > 100 µM (inactive) | > 100 µM (inactive) | 53.5 µM (inactive) | > 100 µM (inactive) | 33.3 µM (inactive) | > 100 µM (inactive) | > 100 µM (inactive) |  |  | 91 µM (inactive) | 50.1 µM (inactive) | 44 µM |
